According to patent publication US10610522B2, “Methods for retreating irritable bowel syndrome (IBS)” (Salix Pharmaceuticals, Inc., priority 2014, dated 2020):
Read-outs that look alike come from different tables or passages of the source.

Assay: Rifaximin systemic exposure/pharmacokinetics in healthy subjects, IBS subjects and liver impaired subjects
Type: in vivo, human
Details: for AUC / Cmax / half-life / Tmax / AUC(0-inf): human, plasma; for Tmax: read-out: Tmax, Median (range); for AUC(0-inf): po, single 550 mg oral dose, read-out: Mean AUC0-∞
Description: Subjects with non-c-IBS had mean AUCtau values following a single dose and multiple TID doses of 9.69 ng·h/mL and 16.0 ng·h/mL, respectively, reflecting an accumulation ratio (Rc; multiple-dose AUCtau/single-dose AUCtau) of […]. In subjects with liver impairment, systemic exposure is higher than that observed in healthy subjects or subjects with non-constipation irritable bowel syndrome, but low nonetheless.
Pharmacokinetic parameters were measured after a single dose and multiple doses (14 days).

CO[C@H]1/C=C/O[C@@]2(C)Oc3c(C)c(O)c4c(O)c(c5c(nc6cc(C)ccn65)c4c3C2=O)NC(=O)/C(C)=C\C=C\[C@H](C)[C@H](O)[C@@H](C)[C@@H](O)[C@@H](C)[C@H](OC(C)=O)[C@@H]1C [Rifaximin, (2S,16Z,18E,20S,21S,22R,23R,24R,25S,26S,27S,28E)-5,6,21,23,25 Pentahydroxy-27-methoxy-2,4,11,16,20,22,24,26-octamethyl-2,7-(epoxypentadeca-(1,11,13)trienimino) benzofuro (4,5-e) pyrido(1,2-a) benzimidazole-1,15(2H)-dione,25-acetate]
AUC (550 mg, 550 mg BID repeat dosing, Child Pugh B, read-out: Mean steady-state AUCtau): 161 ng·h/mL
AUC (550 mg, 550 mg BID repeat dosing, Child-Pugh A, read-out: Mean steady-state AUCtau): 118 ng·h/mL
AUC (550 mg, 550 mg BID repeat dosing, Child-Pugh C, read-out: Mean steady-state AUCtau): 246 ng·h/mL
AUC (550 mg, multiple-dose TID, healthy subjects, read-out: Mean AUCtau, steady-state): 9.3 ng·h/mL
AUC (550 mg, subjects with non-c-IBS, multiple TID doses, read-out: Mean AUCtau): 16 ng·h/mL
AUC (550 mg, subjects with non-c-IBS, single dose, read-out: Mean AUCtau): 9.69 ng·h/mL
AUC (multiple-dose BID, healthy subjects, read-out: Mean AUCtau, steady-state): 12.3 ng·h/mL
AUC (oral, 550 mg, 550 mg BID, Child-Pugh C, read-out: Mean steady-state AUCtau): 257 ng·h/mL
Cmax (oral, 550 mg, 550 mg BID, Child-Pugh C, read-out: Mean steady-state Cmax): 39.7 ng/mL
half-life (oral, 550 mg, Child-Pugh C subjects, read-out: Mean half-life (converted)): 6.35 h
AUC (oral, 550 mg, Healthy Subjects, 550 mg Multiple-Dose TID (Day 14), N = 14, read-out: AUCtau, mean (SD)): 9.3 ng·h/mL
Cmax (oral, 550 mg, Healthy Subjects, 550 mg Multiple-Dose TID (Day 14), N = 14, read-out: Cmax, mean (SD)): 2.39 ng/mL
half-life (oral, 550 mg, Healthy Subjects, 550 mg Multiple-Dose TID (Day 14), N = 14, read-out: Half-life, harmonic mean (pseudo SD) (converted)): 5.63 h
Tmax (oral, 550 mg, Healthy Subjects, 550 mg Multiple-Dose TID (Day 14), N = 14): 1 h
AUC (oral, 550 mg, Healthy Subjects, 550 mg Single-Dose (Day 1), N = 12, read-out: AUCtau, mean (SD)): 10.4 ng·h/mL
Cmax (oral, 550 mg, Healthy Subjects, 550 mg Single-Dose (Day 1), N = 12, read-out: Cmax, mean (SD)): 4.04 ng/mL
half-life (oral, 550 mg, Healthy Subjects, 550 mg Single-Dose (Day 1), N = 12, read-out: Half-life, harmonic mean (pseudo SD) (converted)): 1.83 h
Tmax (oral, 550 mg, Healthy Subjects, 550 mg Single-Dose (Day 1), N = 12): 0.75 h
AUC (oral, 550 mg, IBS-D Patients, 550 mg Multiple-Dose TID (Day 14), N = 24, read-out: AUCtau, mean (SD)): 16 ng·h/mL
Cmax (oral, 550 mg, IBS-D Patients, 550 mg Multiple-Dose TID (Day 14), N = 24, read-out: Cmax, mean (SD)): 4.22 ng/mL
half-life (oral, 550 mg, IBS-D Patients, 550 mg Multiple-Dose TID (Day 14), N = 24, read-out: Half-life, harmonic mean (pseudo SD) (converted)): 6.08 h
Tmax (oral, 550 mg, IBS-D Patients, 550 mg Multiple-Dose TID (Day 14), N = 24): 1 h
AUC (oral, 550 mg, IBS-D Patients, 550 mg Single-Dose (Day 1), N = 24, read-out: AUCtau, mean (SD)): 9.69 ng·h/mL
Cmax (oral, 550 mg, IBS-D Patients, 550 mg Single-Dose (Day 1), N = 24, read-out: Cmax, mean (SD)): 3.49 ng/mL
half-life (oral, 550 mg, IBS-D Patients, 550 mg Single-Dose (Day 1), N = 24, read-out: Half-life, harmonic mean (pseudo SD) (converted)): 3.14 h
Tmax (oral, 550 mg, IBS-D Patients, 550 mg Single-Dose (Day 1), N = 24): 0.775 h
Cmax (oral, 550 mg, single 550-mg dose, fasted healthy subjects, read-out: Cmax): 4.1 ng/mL
AUC(0-inf) (550 mg, fasted healthy subjects): 11.1 ng·h/mL
AUC(0-inf) (550 mg, fed healthy subjects): 22.5 ng·h/mL
Systemic absorption (regardless of food intake or presence of GI disease): < 0.4%
